Test results reported in US11298298B2, “Method for producing nonaqueous composition for external use on skin” (CHANEL PARFUMS BEAUTE, priority 2017, dated 2022).

Experiment: Particle size measurement by dynamic light scattering
Format: physicochemical
Conditions: steps (a) to (c) without palmitoyl-L-carnitine chloride
Protocol: [1] Particle Size Measurement
The particle size of particles contained in the nonaqueous composition for external use on the skin 1 week after preparation was measured by the dynamic light scattering method. Specifically, the measurement was performed on the number mode using a nanoparticle analysis system (Zetasizer Nano ZSP model manufactured by Malvern Instruments Ltd.).

Substance: sucrose erucic acid ester
- Particle size of composition containing particles of the surfactant alone: about 2.5 nm
